{"source": "patent US9796674B2", "about": "“Benzyl urea derivatives for activating TGF-beta signaling” (THE BOARD OF TRUSTEES OF THE LELAND STANFORD JUNIOR …, priority 2013, dated 2017)", "key": {"FvB wildtype mice": {"test_system": "FvB wildtype mice", "type": "in vivo", "experimental": "Excitotoxic injury model: Mice are injured with kainic acid and treated with different test compounds at two concentrations each to determine if they can reduce neurodegeneration and/or microglial activation. Wildtype mice on the FVB/N genetic background (8-weeks-old) are typically injured with kainic acid (Tocris, Ellisville, Mo.) dissolved in PBS and injected subcutaneously (s.q., 20 mg/kg). Seizure activity is scored from 0 to 5, with 0 corresponding to no behavioral changes and 5 corresponding to constant rearing and falling. Only kainate-injected mice reaching at least stage 3 are used for the studies. On day 5 following injury, mice are anesthetized, transcardially perfused with 0.9% saline, and brains harvested and dissected. One hemi-brain may be fixed for 24 hours in 4% paraformaldehyde and cryoprotected in 30% sucrose. Serial coronal sections (40 μm) can be cut with a freezing microtome (Leica, Allendale, N.J.) and stored in cryoprotective medium. One set of sections, representing different levels of the hippocampus, is used for the various stains. The other hemi-brain is dissected into hippocampus, cortex, thalamus, brain stem, and cerebellum. In this manner, the ability of test compounds to reduce neurodegeneration in kainate-injected mice can be assayed.\nSRI-011381 is neuroprotective in a model of acute neurodegeneration: To study the potential neuroprotective effect of SRI-011381 in vivo, FvB wildtype mice were pre-treated with compound or vehicle for 3 days before excitotoxic injury was induced with kainic acid (10 mg/kg, SQ). Mice continued to receive daily injections of compound until they were sacrificed at day 5 after kainic acid injury. Brains were removed, fixed with paraformaldehyde, sectioned into […] sections using a cryomicrotome and stained with cresyl violet, or immunohistochemical methods. Sections for analysis of synaptophysin, MAP2, and NeuN were subjected to blinded confocal quantitative analysis of neurodegeneration.\nTo study the potential neuroprotective effect of SRI-011381, FvB wild-type mice were pre-treated with compound or vehicle for 3 days before excitotoxic injury was induced with kainic acid (10 mg/kg). Mice continued to receive daily injections of compound until they were sacrificed at day 5 after kainic acid injury. Kainic acid treatment alone caused a roughly 50% lethality in this experiment (lethality greatly varies in this model and is very difficult to control, but survivors from experiments with greater than 25% lethality typically show significant neurodegeneration in the hippocampus).\nBrains were removed, fixed with paraformaldehyde, sectioned into […] sections using a cryomicrotome and stained with cresyl violet, or immunohistochemical methods. Sections were analyzed for synaptophysin, MAP2, and NeuN by confocal quantitative analysis of neurodegeneration. All observers were completely blinded to the treatment conditions of the mice."}, "[1]": {"assay": "Single-dose pharmacokinetics in female FVB mice", "type": "in vivo, mouse", "settings": "for Kp at 4 h: read-out: Brain to Plasma concentration ratio at 4 h", "experimental": "Pharmacokinetics of SRI-011381 after single intravenous, intraperitoneal, or oral administration in female FVB mice: The objective of this study was to determine the single-dose pharmacokinetics of SRI-011381 in plasma and brain. Female FVB/NJ mice were administered the test article by intravenous (iv, 10 mg/kg), intraperitoneal (ip, 30 mg/kg), and oral gavage (po, 50 mg/kg) dose routes. The compound was formulated in 10% DMSO:15% Solutol:75% sterile water. Plasma and brain were collected at various time points up to 24 h and analyzed by LC/MS for determination of SRI-011381 levels. FIGS. 7A and 7B summarize SRI-011381 levels in plasma and brain, and Tables 4 and 5 list the results of the pharmacokinetic analysis."}, "[2]": {"assay": "PAMPA-BBB permeability assay", "type": "in vitro ADME", "experimental": "(§1) Permeability Assays: PAMPA screens, both for absorption from the gut and through blood brain barrier, were used as a first tier screen for this program. SRI-011381 was evaluated in the double sink assay format and the sum of the permeability coefficients at three pH values (7.4, 6.2, 5.0) was calculated (Pe) to be 781×10^−6 cm/s, which is consistent with an orally available compound.\n(§2) Permeability PAMPA: The PAMPA assay was used to predict oral bioavailability of compounds. The PAMPA determines the permeability of compounds across a biological membrane using a synthetic lipid membrane and detection by UV absorbance. […] The PAMPA-BBB assay was performed, to predict permeability to the blood brain barrier, as an aqueous assay and as a co-solvent assay. In this assay the composition of the lipid membrane included brain-derived lipids, mimicking the BBB membrane."}, "[3]": {"assay": "Cytotoxicity in primary rat hepatocytes", "type": "cell-based", "settings": "rat", "experimental": "In Vitro Cytotoxicity: The cytotoxicity of SRI-011381 was determined in primary rat hepatocytes and in VERO cells.\nRat hepatocytes were isolated by collagenase perfusion and allowed to form a monolayer overnight. The test compounds were added to the cells in 5 concentrations up to 250 μM. Cells were incubated with the test article for 20 h and then toxicity determined by the MTT cytotoxicity screen. Toxicity was evaluated against the vehicle control (DMSO) and a positive control, amitriptylin, was included with each experiment."}, "[4]": {"assay": "PAMPA double sink permeability assay", "type": "in vitro ADME", "settings": "pH 7.4, 6.2, 5.0, read-out: sum of the permeability coefficients (Pe)", "experimental": "as §1, §2"}, "[5]": {"settings": "one third of maximum tolerated dose"}, "[6]": {"settings": "female, FVB/NJ, mouse, brain, ip, 30 mg/kg"}, "[7]": {"settings": "female, FVB/NJ, mouse, brain, iv, 10 mg/kg"}, "[8]": {"settings": "female, FVB/NJ, mouse, brain, po, 50 mg/kg"}, "[9]": {"settings": "female, FVB/NJ, mouse, plasma, ip, 30 mg/kg"}, "[10]": {"settings": "female, FVB/NJ, mouse, plasma, iv, 10 mg/kg"}, "[11]": {"settings": "female, FVB/NJ, mouse, plasma, po, 50 mg/kg"}}, "note": "Like-named read-outs stand apart in the source and are kept apart here."}
{"smiles": "O=C(NC1CCCCC1)N(Cc1ccccc1)CC1CCNCC1", "note": "[SRI-011381, 1-Benzyl-3-cyclohexyl-1-(piperidin-4-ylmethyl)urea]", "values": [{"measurement": "lethality after kainic acid", "setting": "FvB wildtype mice; 10 mg/kg daily", "value": "significant reduction in lethality"}, {"measurement": "calbindin loss reduced", "setting": "FvB wildtype mice; kainic acid 10 mg/kg, day 5", "value": 30, "unit": "%"}, {"measurement": "neuronal damage reversed or prevented, all neuronal markers", "setting": "FvB wildtype mice; kainic acid 10 mg/kg, day 5", "value": "at least 30%"}, {"measurement": "reduction of CD68 expression", "setting": "FvB wildtype mice; kainic acid 10 mg/kg, day 5", "value": "more than 20%"}, {"measurement": "lethality after kainic acid", "setting": "FvB wildtype mice; mouse, in vivo, 60 mg/kg", "value": "increase in lethality"}, {"measurement": "pathology reduced: Cresyl violet", "setting": "FvB wildtype mice; [5]", "value": 54.0, "unit": "%"}, {"measurement": "pathology reduced: D68", "setting": "FvB wildtype mice; [5]", "value": 22.5, "unit": "%"}, {"measurement": "pathology reduced: MAP-2", "setting": "FvB wildtype mice; [5]", "value": 37.4, "unit": "%"}, {"measurement": "pathology reduced: NeuN", "setting": "FvB wildtype mice; [5]", "value": 36.9, "unit": "%"}, {"measurement": "pathology reduced: Synaptophysin", "setting": "FvB wildtype mice; [5]", "value": 67.5, "unit": "%"}, {"measurement": "neurodegeneration (percentage of rescue)", "setting": "FvB wildtype mice; systemic administration", "value": "reduces neurodegeneration by 6 markers"}, {"measurement": "Kp", "setting": "[1]; female, FVB/NJ, mouse, brain, intraperitoneal, time points after about 0.5 h (iv) and about 1.5 h (po and ip), read-out: brain-to-plasma concentration ratio", "value": "> 0.5"}, {"measurement": "Cmax", "setting": "[1]; [6]", "value": "348 ± 33", "unit": "ng/mL"}, {"measurement": "Tmax", "setting": "[1]; [6]", "value": 15, "unit": "min"}, {"measurement": "Kp at 4 h", "setting": "[1]; [6]", "value": 1.65}, {"measurement": "Cmax", "setting": "[1]; [7]", "value": "231 ± 106", "unit": "ng/mL"}, {"measurement": "Tmax", "setting": "[1]; [7]", "value": 15, "unit": "min"}, {"measurement": "Kp at 4 h", "setting": "[1]; [7]", "value": 12.5}, {"measurement": "Cmax", "setting": "[1]; [8]", "value": "157 ± 16", "unit": "ng/mL"}, {"measurement": "Tmax", "setting": "[1]; [8]", "value": 60, "unit": "min"}, {"measurement": "Kp at 4 h", "setting": "[1]; female, FVB/NJ, mouse, brain, po, 50 mg/kg, p.o.", "value": 0.89}, {"measurement": "Kp", "setting": "[1]; female, FVB/NJ, mouse, brain/plasma, ip, 30 mg/kg, values at the brain T, read-out: Brain-to-plasma ratio", "value": 0.07}, {"measurement": "Kp", "setting": "[1]; female, FVB/NJ, mouse, brain/plasma, iv, 10 mg/kg, values at the brain T, read-out: Brain-to-plasma ratio", "value": 0.28}, {"measurement": "Kp", "setting": "[1]; female, FVB/NJ, mouse, brain/plasma, po, 50 mg/kg, values at the brain T, read-out: Brain-to-plasma ratio", "value": 0.19}, {"measurement": "clearance", "setting": "[1]; female, FVB/NJ, mouse, plasma, intraperitoneal, extravascular estimates (ip and po) based on F, read-out: Cl (converted)", "value": "~150", "unit": "mL/min/kg"}, {"measurement": "Vd", "setting": "[1]; female, FVB/NJ, mouse, plasma, intraperitoneal, extravascular estimates (ip and po) based on F, read-out: apparent volume of distribution V", "value": "8 to 13", "unit": "L/kg"}, {"measurement": "half-life", "setting": "[1]; female, FVB/NJ, mouse, plasma, intravenous, intraperitoneal, oral, read-out: elimination half-life", "value": "< 60", "unit": "min"}, {"measurement": "AUC(0-inf)", "setting": "[1]; [9]", "value": 4160, "unit": "ng·h/mL"}, {"measurement": "AUC(0-t)", "setting": "[1]; [9]", "value": "4110 ± 214", "unit": "ng·h/mL"}, {"measurement": "Cmax", "setting": "[1]; [9]", "value": "6810 ± 720", "unit": "ng/mL"}, {"measurement": "Tmax", "setting": "[1]; [9]", "value": 4.98, "unit": "min"}, {"measurement": "half-life", "setting": "[1]; female, FVB/NJ, mouse, plasma, ip, 30 mg/kg, read-out: t1/2 (converted)", "value": 35.4, "unit": "min"}, {"measurement": "AUC(0-inf)", "setting": "[1]; [10]", "value": 1080, "unit": "ng·h/mL"}, {"measurement": "AUC(0-t)", "setting": "[1]; [10]", "value": "1070 ± 129", "unit": "ng·h/mL"}, {"measurement": "Cmax", "setting": "[1]; [10]", "value": "1170 ± 415", "unit": "ng/mL"}, {"measurement": "Tmax", "setting": "[1]; [10]", "value": 4.98, "unit": "min"}, {"measurement": "clearance", "setting": "[1]; female, FVB/NJ, mouse, plasma, iv, 10 mg/kg, read-out: CI (clearance) (converted)", "value": 154, "unit": "mL/min/kg"}, {"measurement": "half-life", "setting": "[1]; female, FVB/NJ, mouse, plasma, iv, 10 mg/kg, read-out: t1/2 (converted)", "value": 34.2, "unit": "min"}, {"measurement": "AUC(0-inf)", "setting": "[1]; [11]", "value": 2600, "unit": "ng·h/mL"}, {"measurement": "AUC(0-t)", "setting": "[1]; [11]", "value": "2600 ± 374", "unit": "ng·h/mL"}, {"measurement": "Cmax", "setting": "[1]; [11]", "value": "2950 ± 1240", "unit": "ng/mL"}, {"measurement": "Tmax", "setting": "[1]; [11]", "value": 10, "unit": "min"}, {"measurement": "bioavailability", "setting": "[1]; female, FVB/NJ, mouse, plasma, po, 50 mg/kg, plasma, po, 50 mg/kg, read-out: F (oral bioavailability)", "value": "~50", "unit": "%"}, {"measurement": "half-life", "setting": "[1]; female, FVB/NJ, mouse, plasma, po, 50 mg/kg, read-out: t1/2 (converted)", "value": 58.2, "unit": "min"}, {"measurement": "AUC(0-t)", "setting": "[1]; female, FVB/NJ, mouse, brain, ip, 30 mg/kg, AUC from 0.25 to 4 h", "value": "740 ± 32", "unit": "ng·h/mL"}, {"measurement": "AUC(0-t)", "setting": "[1]; female, FVB/NJ, mouse, brain, iv, 10 mg/kg, AUC from 0.25 to 4 h", "value": "738 ± 89", "unit": "ng·h/mL"}, {"measurement": "AUC(0-t)", "setting": "[1]; female, FVB/NJ, mouse, brain, po, 50 mg/kg, AUC from 0.5 to 4 h", "value": "416 ± 33", "unit": "ng·h/mL"}, {"measurement": "CI (clearance)", "setting": "[1]; plasma, ip, 30 mg/kg", "value": 154.3, "unit": "mL/min/kg"}, {"measurement": "F", "setting": "[1]; plasma, ip, 30 mg/kg", "value": 128, "unit": "%"}, {"measurement": "V", "setting": "[1]; plasma, ip, 30 mg/kg", "value": 7.875, "unit": "L/kg"}, {"measurement": "F", "setting": "[1]; plasma, iv, 10 mg/kg", "value": 100, "unit": "%"}, {"measurement": "V", "setting": "[1]; plasma, iv, 10 mg/kg", "value": 7.669, "unit": "L/kg"}, {"measurement": "V", "setting": "[1]; plasma, po, 50 mg/kg", "value": 13.012, "unit": "L/kg"}, {"measurement": "PAMPA-BBB Pe", "setting": "[2]", "value": "4.2±2.2 ×10^−6 cm/s"}, {"measurement": "Papp", "setting": "[2]; PAMPA, read-out: PAMPA-BBB Pe", "value": "4.2 ± 2.2", "unit": "×10⁻⁶ cm/s"}, {"measurement": "CC50 at 20 h", "setting": "[3]", "value": "> 100", "unit": "µM"}, {"measurement": "Papp", "setting": "[4]", "value": 781, "unit": "×10⁻⁶ cm/s"}]}
